“And” between values parts separate entries of the source, which are not always exact repeats. Equal entries are not always repeated. Where two headings read alike, the source gives them in different places.
Assays:
[1] = test system: wild type Thielavia (TaLcc) laccase; assay type: biochemical, Thielavia arenaria; settings: pH 5
[2] = test system: wild type Chaetomium (CtL) laccase; assay type: biochemical, Chaetomium thermophilum; settings: pH 5
[3] = test system: CtLcc1; assay type: biochemical, Chaetomium thermophilum
Description: (§1) The inhibition effect of different compounds on the activity of the laccases was determined as described in Example 2. except with Talcc4, with which the inhibition was analyzed using spectroscopic activity assay.

[4] = test system: TaLcc1; assay type: biochemical, Thielavia arenaria
Description: as §1

[5] = test system: TaLcc2; assay type: biochemical, Thielavia arenaria
Description: as §1

[6] = target: T1, Thielavia arenaria ALKO4197 laccase TaLcc1, recombinant, SEQ ID NO: 39 (Canariomyces arenarius, UniProt F6N9E7); assay type: biochemical
T1 construct: plasmid pALK1342 (DSM 15484)
T1 sequence (F6N9E7 entry or part of it): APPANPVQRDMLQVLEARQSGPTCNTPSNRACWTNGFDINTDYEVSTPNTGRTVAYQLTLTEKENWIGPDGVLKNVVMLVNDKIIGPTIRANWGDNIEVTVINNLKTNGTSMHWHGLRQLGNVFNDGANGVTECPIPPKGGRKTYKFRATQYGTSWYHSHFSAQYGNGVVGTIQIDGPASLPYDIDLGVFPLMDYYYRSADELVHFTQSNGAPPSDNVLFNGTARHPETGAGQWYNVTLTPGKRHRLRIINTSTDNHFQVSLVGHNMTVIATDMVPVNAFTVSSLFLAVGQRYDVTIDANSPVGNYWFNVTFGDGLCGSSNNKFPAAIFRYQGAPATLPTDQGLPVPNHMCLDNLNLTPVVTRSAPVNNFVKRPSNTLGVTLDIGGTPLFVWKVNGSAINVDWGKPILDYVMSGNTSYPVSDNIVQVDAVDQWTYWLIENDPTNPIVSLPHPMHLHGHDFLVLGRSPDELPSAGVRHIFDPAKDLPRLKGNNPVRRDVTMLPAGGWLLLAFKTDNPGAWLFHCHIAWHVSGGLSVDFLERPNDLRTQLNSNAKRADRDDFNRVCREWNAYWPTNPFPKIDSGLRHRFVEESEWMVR
Description: (§2) On syringaldazin and DMP 40 mM MES buffer, pH 6 was used. All activity assays were carried out at 25° C. Kinetic parameters were estimated by a nonlinear regression curve fit. The values were compared to those of Melanocarpus albomyces MaL, laccase.

[7] = test system: Thielavia arenaria ALKO4197 laccase TaLcc3, recombinant, SEQ ID NO: 43; assay: Kinetic parameters of TaLcc3; assay type: biochemical
Description: as §2

[8] = test system: Thielavia arenaria ALKO4197 laccase TaLcc4, recombinant, SEQ ID NO: 45; assay: Kinetic parameters of TaLcc4; assay type: biochemical
Description: as §2

[9] = target: T2, Melanocarpus albomyces laccase (MaL) (Melanocarpus albomyces, UniProt Q70KY3); assay: Kinetic parameters of MaL; assay type: biochemical
T2 sequence (Q70KY3 51-609): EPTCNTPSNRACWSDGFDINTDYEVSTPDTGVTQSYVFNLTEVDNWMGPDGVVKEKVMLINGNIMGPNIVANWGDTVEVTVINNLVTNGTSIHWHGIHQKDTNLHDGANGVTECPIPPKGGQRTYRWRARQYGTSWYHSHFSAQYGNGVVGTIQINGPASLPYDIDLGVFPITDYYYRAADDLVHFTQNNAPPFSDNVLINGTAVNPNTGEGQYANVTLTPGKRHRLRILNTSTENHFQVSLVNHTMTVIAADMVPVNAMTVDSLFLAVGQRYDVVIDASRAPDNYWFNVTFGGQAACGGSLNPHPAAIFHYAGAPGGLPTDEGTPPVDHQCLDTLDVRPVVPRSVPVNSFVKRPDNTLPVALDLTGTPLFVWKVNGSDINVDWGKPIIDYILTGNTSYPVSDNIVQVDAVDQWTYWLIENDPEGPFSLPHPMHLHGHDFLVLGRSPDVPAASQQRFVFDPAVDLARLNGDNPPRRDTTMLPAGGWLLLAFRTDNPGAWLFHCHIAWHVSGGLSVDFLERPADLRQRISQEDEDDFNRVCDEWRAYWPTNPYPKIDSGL
Description: as §2

[10] = 25 mM succinate buffer pH 4.5, 25° C.

| Structure (SMILES) | Km ([6]; 40 mM MES buffer, pH 6, 25° C.) | kcat ([6]; 40 mM MES buffer, pH 6, 25° C.) | Km ([7]; 40 mM MES buffer, pH 6, 25° C.) | kcat ([7]; 40 mM MES buffer, pH 6, 25° C.) | Km ([8]; 40 mM MES buffer, pH 6, 25° C.) | kcat ([8]; 40 mM MES buffer, pH 6, 25° C.) | kcat ([9]; 40 mM MES buffer, pH 6, 25° C.) | further results |
| --- | --- | --- | --- | --- | --- | --- | --- | --- |
| [Cl-].[Na+] [NaCl] |  |  |  |  |  |  |  | Inhibition (%) TaLcc [1]: 35% and 42%; Inhibition (%) CtL [2]: 0% and 10%; Inhibition (%) CtLcc1 [3]: 0% and 10%; Inhibition (%) TaLcc1 [4]: 0%; Inhibition (%) TaLcc2 [5]: 20% and 30% |
| CCn1c(=NN=c2sc3cc(S(=O)(=O)O)ccc3n2CC)sc2cc(S(=O)(=O)O)ccc21 [ABTS, 2,2′azinobis-3-ethylbenzthiazole-6-sulphonate] |  |  |  |  |  |  |  | Km ([6]; pH 4.5): 75 µM; kcat ([6]; pH 4.5): 4130 min⁻¹; Km [7, 10]: 1040 µM; kcat [7, 10]: 37 min⁻¹; Km [8, 10]: 2.47 mM; kcat [8, 10]: 8610 min⁻¹; kcat ([9]; pH 4.5): 4690 min⁻¹ |
| COc1cccc(OC)c1O [DMP, 2,6-dimethoxy phenol] | 17 µM | 4030 min⁻¹ | 14 µM | 5 min⁻¹ | 1.9 mM | 1590 min⁻¹ | 4160 min⁻¹ |  |
| COc1cc(C=NN=Cc2cc(OC)c(O)c(OC)c2)cc(OC)c1O [Syringaldazin, syringaldazin] | 4.3 µM | 1940 min⁻¹ | 4.3 µM | 12 min⁻¹ | 0.115 mM | 930 min⁻¹ | 4710 min⁻¹ |  |
